Consider 18 compounds from article PMC6270751, “N-Substituted 5-Amino-6-methylpyrazine-2,3-dicarbonitriles: Microwave-Assisted Synthesis and Biological Properties” (Molecules, 2014).

Values after ≈ are worked out from the molar mass of the structure shown. Values joined by “and” are separate entries in the source; they are usually repeats but may differ in a detail not shown here. Equal entries are not always repeated. Where two headings read alike, the source gives them in different places. Bounds are passed on as bounds.

The subject of data set [1] is photosynthetic electron transport (PET) in spinach chloroplasts. Put plainly: Inhibition of photosynthetic electron transport (PET) in spinach chloroplasts, DCPIP photoreduction. It is filed as biochemical, Spinacia oleracea L. The following applies: for IC50 / IC50 PET inhibition in spinach chloroplasts: chlorophyll 30 mg/L, phosphate buffer pH 7.2. The method, then: Chloroplasts were prepared from spinach (Spinacia oleracea L.) according to Masarovicova and Kralova. The inhibition of photosynthetic electron transport (PET) in spinach chloroplasts was determined spectrophotometrically (Genesys 6, Thermo Scientific, Madison, WI, USA) using an artificial electron acceptor 2,6-dichlorophenol-indophenol (DCPIP) according to Kralova et al. and the rate of photosynthetic electron transport (PET) was monitored as a photo-reduction of DCPIP. The measurements were carried out in a phosphate buffer (0.02 mol/L, pH 7.2) containing sucrose (0.4 mol/L), MgCl2 (0.005 mol/L) and NaCl (0.015 mol/L). The chlorophyll content was 30 mg/L in these experiments and the samples were irradiated (~100 W/m^2) from a 10 cm distance with halogen lamp (250 W) using a 4 cm water filter to prevent warming of the samples (suspension temperature […]). The studied compounds were dissolved in DMSO due to their limited water solubility. […] The inhibitory efficiency of the studied compounds was expressed as the IC50 values, i.e., molar concentration of the compounds causing 50% decrease in the oxygen evolution relative to the untreated control.

Data set [2] deals with M. tuberculosis H37Rv CNCTC My 331/88. Put plainly: Antimycobacterial in vitro screening, microdilution broth panel method, Alamar Blue. It is filed as cell-based, Mycobacterium tuberculosis. As to conditions: 37 °C; for MIC: Mycobacterium tuberculosis, H37RV, 336 h, pH 6, Sula's medium pH 6.0, 14 days; for MIC M.tuberculosis H37Rv: Sula's medium pH 6.0, 14 days. Background: Dilution methods test growth across graded concentrations, often in twofold steps.

The nature of data set [3]: Lipophilicity log k by RP-HPLC. As to conditions: for log k: RP-HPLC capacity factor, C18, MeOH 70%/H2O 30%, 30 °C; for π: π = log k(substituted) – log k(unsubstituted).
Source text: Experimental lipophilicity parameter log k was ascertained using an Agilent Technologies 1200 SL HPLC system with a SL G1315C Diode-Array Detector, ZORBAX XDB-C18 5 μm, 4 × 4 mm, Part No. 7995118-504 chromatographic pre-column and ZORBAX Eclipse XDB-C18 5 μm, 4.6 × 250 mm, Part No. 7995118-585 column (Agilent Technologies Inc., Colorado Springs, CO, USA). The separation process was controlled by Agilent ChemStation, version B.04.02 extended by spectral module (Agilent Technologies Inc.). A solution of MeOH (HPLC grade, 70%) and H2O (HPLC-Milli-Q Grade, 30%) was used as mobile phase. The total flow of the column was 1.0 mL/min, injection 20 μL, column temperature 30 °C. Detection wavelength λ= 210 nm and monitor wavelength λ= 270 nm were chosen for this measurement. The KI methanol solution was used for the dead time (TD) determination. Retention times (TR) of synthesized compounds were measured in minutes. The capacity factors k were calculated using Microsoft Excel according to formula k = (TR − TD)/TD, where TR is the retention time of the solute and TD denotes the dead time obtained via an unretained analyte. Log k, calculated from the capacity factor k, is used as the lipophilicity index converted to log P scale.
The next data set deals with M. avium CNCTC My 152/73. Put plainly: Antimycobacterial in vitro screening, non-tuberculosis strain M. avium. The format is cell-based, Mycobacterium avium. As to conditions: result in words.
For data set [4], the system named is Trichophyton mentagrophytes 445. The data set can be described thus: Antifungal in vitro screening, microdilution broth method. The format is cell-based. The following applies: for MIC: Trichophyton mentagrophytes, 445, RPMI 1640, pH 7.0, 35 °C, read-out: MIC against Trichophyton mentagrophytes; for activity against Trichophyton mentagrophytes: result in words. The method, then:
Antifungal evaluation was also accomplished with microdilution broth method. On the contrary, there was used RPMI 1640 broth with glutamine as medium and conditions were humid and dark atmosphere, pH 7.0 (buffered with 3-morpholinopropane-1-sulfonic acid) and 35 °C. Eight fungal strains were used (Candida albicans ATCC 44859, Candida tropicalis 156, Candida krusei E28, Candida glabrata 20/I, Trichosporon asahii 1188, Aspergillus fumigatus 231, Absidia corymbifera 272, Trichophyton mentagrophytes 445) together with 4 antimycotic standards amphotericin B, voriconazole, nystatin and fluconazole.

The subject of data set [5] is M. kansasii CNCTC My 235/80. Put plainly: Antimycobacterial in vitro screening, non-tuberculosis strain M. kansasii. The format is cell-based, Mycobacterium kansasii. The following applies: result in words.
The test system of data set [6] is photosynthetic electron transport (PET) in spinach chloroplasts. Further details: method as in earlier work. As to conditions: DCMU standard; read-out: IC50 PET inhibition in spinach chloroplasts (standard); cited from earlier work.

What is called IC50 is the midpoint of a concentration-inhibition curve. The MIC is the smallest concentration in the dilution series that meets the test's criterion for growth inhibition.

`Cc1nc(C#N)c(C#N)nc1NCc1cccc(Cl)c1` [Compound 8, 5-[(3-Chlorobenzyl)amino]-6-methylpyrazine-2,3-dicarbonitrile] registered a 50% inhibitory concentration (IC50) in data set [1] of 57.4 µM. The same compound gave an MIC in data set [2] of 12.5 µg/mL (≈ 44.1 µM). In data set [3], the log k came to 0.5172 and the π came to 0.2178.
In turn, `Cc1nc(C#N)c(C#N)nc1NCc1cccc(C(F)(F)F)c1` [Compound 2, 5-Methyl-6-{[3-(trifluoromethyl)benzyl]amino}pyrazine-2,3-dicarbonitrile] came in with an IC50 in data set [1] of 37.7 µM. Also, the MIC in data set [2] stood at 12.5 µg/mL (≈ 39.4 µM). In addition, in data set [3], the log k is given as 0.5369 and the π is given as 0.2375.
In turn, `NC(=O)c1cnccn1` [PZA, pyrazinamide, reference compound] displayed a minimal inhibitory concentration (MIC) in data set [2] of 12.5 µg/mL (≈ 102 µM).
With `COc1ccc(CNc2nc(C#N)c(C#N)nc2C)c(OC)c1` [Compound 13, 5-[(2,4-Dimethoxybenzyl)amino]-6-methylpyrazine-2,3-dicarbonitrile], the “IC50 PET inhibition in spinach chloroplasts” value (shortened to “IC50 PET inhibition”) in data set [1] was “inactive”. The compound further had a minimum inhibitory concentration (MIC) in data set [2] of 25 µg/mL (≈ 80.8 µM). In addition, in data set [3], the log k turned out to be 0.3699 and the π is on record as 0.0705.
In data set [1], `Cc1ccc(CNc2nc(C#N)c(C#N)nc2C)cc1` [Compound 4, 5-Methyl-6-[(4-methylbenzyl)amino]pyrazine-2,3-dicarbonitrile] returned an IC50 of 105 µM. This compound also yielded a minimal inhibitory concentration (MIC) in data set [2] of 25 µg/mL (≈ 94.9 µM). In data set [3], this compound gave a log k of 0.5157 and a π of 0.2163.
In data set [2], `NNC(=O)c1ccncc1` [INH, isoniazid, reference compound] gave an MIC of 1.56 µg/mL (≈ 11.4 µM).
On to `COc1ccc(CNc2nc(C#N)c(C#N)nc2C)cc1` [Compound 5, 5-[(4-Methoxybenzyl)amino]-6-methylpyrazine-2,3-dicarbonitrile], for which the IC50 in data set [1] turned out to be 465 µM. Further, in data set [2], the minimal inhibitory concentration (MIC) is above 100 µg/mL and the “MIC M.tuberculosis H37Rv” value was above 100 µg/mL. In data set [3], this compound yielded a log k of 0.2820 and a π of −0.0174.
In data set [1], `Cc1nc(C#N)c(C#N)nc1NCc1ccccc1C(F)(F)F` [Compound 12, 5-Methyl-6-{[2-(trifluoromethyl)benzyl]amino}pyrazine-2,3-dicarbonitrile] had an IC50 of 71.6 µM. In addition, in the data set with M. avium CNCTC My 152/73, the “activity against M. avium 152” value is “active”. Also, the minimal inhibitory concentration (MIC) in data set [2] stood at 12.5 µg/mL (≈ 39.4 µM). In data set [3], this compound showed a log k of 0.4865 and a π of 0.1871. The MIC in data set [4] came out at 125 µM (≈ 39.7 µg/mL). Moreover, the “activity against M. kansasii” value in data set [5] is “active”.
`Cc1nc(C#N)c(C#N)nc1NCc1ccc(Cl)c(Cl)c1` [Compound 3, 5-[(3,4-Dichlorobenzyl)amino]-6-methylpyrazine-2,3-dicarbonitrile] gave a half-maximal inhibitory concentration (IC50) in data set [1] of 16.4 µM. Further, the “PET inhibitory activity relative to DCMU (times lower)” value in data set [1] (ratio of IC50 to standard DCMU) was 8.6 times. In data set [2], the minimum inhibitory concentration (MIC) was determined as 6.25 µg/mL (≈ 19.6 µM). In data set [3], this compound showed a log k of 0.7538 and a π of 0.4544.
In the case of `Cc1nc(C#N)c(C#N)nc1NCc1ccc(Cl)cc1` [Compound 15, 5-[(4-Chlorobenzyl)amino]-6-methylpyrazine-2,3-dicarbonitrile], the IC50 in data set [1] was 86.5 µM. For the same compound, the MIC in data set [2] is 12.5 µg/mL (≈ 44.1 µM). In data set [3], the log k is 0.5384 and the π worked out at 0.2390. For the same compound, in data set [4], the “activity against Trichophyton mentagrophytes” value is recorded as “insignificant activity”.
Regarding `Cc1nc(C#N)c(C#N)nc1NCc1cccc([N+](=O)[O-])c1` [Compound 14, 5-Methyl-6-[(3-nitrobenzyl)amino]pyrazine-2,3-dicarbonitrile], in data set [1], the half-inhibitory concentration (IC50) turned out to be 487 µM. The compound further returned an MIC in data set [2] of 12.5 µg/mL (≈ 42.5 µM). Besides, in data set [3], the log k came out at 0.1808 and the π is −0.1186.
In data set [1], `Cc1nc(C#N)c(C#N)nc1NCc1ccc(C(F)(F)F)cc1` [Compound 11, 5-Methyl-6-{[4-(trifluoromethyl)benzyl]amino}pyrazine-2,3-dicarbonitrile] registered an IC50 of 39.6 µM. Further, in the data set on M. avium CNCTC My 152/73, the “activity against M. avium 152” value is given as “active”. The lowest concentration to inhibit growth in data set [2] (MIC) was 6.25 µg/mL (≈ 19.7 µM). In addition, in data set [3], the log k turned out to be 0.5626 and the π amounted to 0.2632. In addition, the “activity against M. kansasii” value in data set [5] was “active”.
Consider `Cc1ccccc1CNc1nc(C#N)c(C#N)nc1C` [Compound 1, 5-Methyl-6-[(2-methylbenzyl)amino]pyrazine-2,3-dicarbonitrile], for which the half-maximal inhibitory concentration (IC50) in data set [1] was found to be 114 µM. For the same compound, in data set [2], the MIC was above 100 µg/mL and the “MIC M.tuberculosis H37Rv” value is above 100 µg/mL. In data set [3], this compound registered a log k of 0.4668 and a π of 0.1674.
Turning to `Cc1nc(C#N)c(C#N)nc1NCc1ccccc1Cl` [Compound 9, 5-[(2-Chlorobenzyl)amino]-6-methylpyrazine-2,3-dicarbonitrile], the IC50 in data set [1] is 79 µM. In data set [2], this compound had a minimal inhibitory concentration (MIC) of 6.25 µg/mL (≈ 22 µM). In data set [3], this compound registered a log k of 0.4663 and a π of 0.1669.
For the compound `CN(C)C(=O)Nc1ccc(Cl)c(Cl)c1` [DCMU, 3-(3,4-dichlorophenyl)-1,1-dimethylurea], in data set [6], the IC50 is ~1900 nM and 1900 nM.
In data set [1], `Cc1nc(C#N)c(C#N)nc1NCc1ccccc1F` [Compound 10, 5-[(2-Fluorobenzyl)amino]-6-methylpyrazine-2,3-dicarbonitrile] came in with a 50% inhibitory concentration (IC50) of 196 µM. Also, in data set [2], 12.5 µg/mL (≈ 46.8 µM) was the least that counted as inhibitory (MIC). In data set [3], the log k came to 0.3042 and the π stood at 0.0048. Also, in data set [4], the minimum inhibitory concentration (MIC) came out at 500 µM (≈ 134 µg/mL) and the “activity against Trichophyton mentagrophytes” value is reported as “insignificant activity”.
Regarding `Cc1nc(C#N)c(C#N)nc1NCc1ccc(N)cc1` [Compound 7, 5-[(4-Aminobenzyl)amino]-6-methylpyrazine-2,3-dicarbonitrile], in data set [1], the “IC50 PET inhibition” value is “inactive”. Moreover, it took 25 µg/mL (≈ 94.6 µM) to inhibit growth in data set [2] (MIC). In data set [3], this compound registered a log k of −0.2014 and a π of −0.5008. Moreover, in data set [4], the MIC came to 500 µM (≈ 132 µg/mL) and the “activity against Trichophyton mentagrophytes” value was “insignificant activity”.
`Cc1nc(C#N)c(C#N)nc1NCc1ccccc1` [Compound 6, 5-(Benzylamino)-6-methylpyrazine-2,3-dicarbonitrile]: the “IC50 PET inhibition” value in data set [1] is “inactive”. Also, in data set [2], the minimum inhibitory concentration (MIC) came out at 25 µg/mL (≈ 100 µM). In data set [3], this compound had a log k of 0.2994 and a π of 0.
